Results taken from article PMC7617969, “Carboxylic Acid Bioisosteres Boost Nurr1 Agonist Selectivity” (Journal of medicinal chemistry, 2025).
Values joined by “and” are separate entries in the source; they are usually repeats but may differ in a detail not shown here. Identical values can stand only once. Like-named read-outs stand apart in the source and are kept apart here.

Legend:
[1] = target: T1, Nurr1 (Homo sapiens, UniProt P43354); assay: Gal4-Nurr1 hybrid reporter gene assay; assay type: cell-based; conditions: for EC50 / max. activation (Nurr1): Gal4-Nurr1 hybrid reporter gene assay; for EC50: HEK293T cells, mean ± S.E.M., n ≥ 3; for max. activation (Nurr1): fold activation vs untreated control; for selectivity index DHODH/Nurr1: IC50(DHODH) / EC50(Nurr1); for efficacy_NR4A2: supplementary csv, max. activation in %
T1 construct: expressed in transfected cells; host or cells: HEK293T

[2] = target: T2, DHODH (Homo sapiens, UniProt Q02127); assay: DHODH inhibition colorimetric assay on recombinant human protein; assay type: biochemical
T2 construct: using an N-terminally truncated recombinant DHODH enzyme as described previously[20]

[3] = target: T1, Nurr1; conditions: cited from earlier work; for efficacy_NR4A2: supplementary csv
[4] = target: T2, DHODH; conditions: recombinant human DHODH; cited from earlier work
[5] = recombinant human DHODH, colorimetric, mean ± S.E.M., n ≥ 3, read-out: IC50 (DHODH)
[6] = Gal4-Nurr1 hybrid reporter gene assay

T2 sequence (Q02127 31-395): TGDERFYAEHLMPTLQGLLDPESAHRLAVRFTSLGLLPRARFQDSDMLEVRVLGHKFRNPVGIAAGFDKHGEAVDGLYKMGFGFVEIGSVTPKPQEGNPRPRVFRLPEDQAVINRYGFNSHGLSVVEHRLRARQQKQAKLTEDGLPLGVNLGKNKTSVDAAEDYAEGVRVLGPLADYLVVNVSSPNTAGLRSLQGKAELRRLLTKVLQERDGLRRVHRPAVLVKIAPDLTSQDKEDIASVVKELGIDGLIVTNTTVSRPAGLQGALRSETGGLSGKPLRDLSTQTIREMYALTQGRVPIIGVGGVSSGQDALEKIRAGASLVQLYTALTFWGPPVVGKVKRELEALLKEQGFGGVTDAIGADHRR
T1 sequence (P43354 360-595 limits assumed): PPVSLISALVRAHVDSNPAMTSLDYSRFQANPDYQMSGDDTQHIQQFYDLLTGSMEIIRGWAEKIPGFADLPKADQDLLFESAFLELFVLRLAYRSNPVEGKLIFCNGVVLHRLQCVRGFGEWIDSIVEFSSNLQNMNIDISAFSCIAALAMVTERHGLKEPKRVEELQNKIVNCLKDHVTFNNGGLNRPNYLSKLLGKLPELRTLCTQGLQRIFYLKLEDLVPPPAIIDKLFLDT

[2H]C([2H])([2H])Oc1cccc(-c2c(F)c(F)c(NC(=O)c3ccsc3-c3c(O)c(=O)c3=O)c(F)c2F)c1 [compound 17, 2-(2-Hydroxy-3,4-dioxocyclobut-1-en-1-yl)-N-{2,3,5,6-tetrafluoro-3’-(^2H3)methoxy-[1,1'-biphenyl]-4-yl}thiophene-3-carboxamide]
EC50 [1]: 100 ± 50 nM
max. activation (Nurr1) [1]: 1.97 ± 0.43 fold
selectivity index DHODH/Nurr1 [1]: 7
efficacy_NR4A2 [1]: 197%
IC50 [2, 5]: 700 ± 500 nM

[2H]C([2H])([2H])Oc1cccc(-c2c(F)c(F)c(NC(=O)c3cscc3-c3n[nH]c(=S)o3)c(F)c2F)c1 [compound 27, N-(2,3,5,6-Tetrafluoro-3’-(^2H3)methoxy-[1,1'-biphenyl]-4-yl)-4-{5-thioxo-4,5-dihydro-1,3,4-oxadiazol-2-yl}thiophene-3-carboxamide]
EC50 [1]: 160 ± 50 nM
max. activation (Nurr1) [1]: 1.7±0.1 fold
selectivity index DHODH/Nurr1 [1]: 6.0
efficacy_NR4A2 [1]: 170%
IC50 [2, 5]: 960 ± 90 nM

[2H]C([2H])([2H])Oc1cccc(-c2c(F)c(F)c(NC(=O)C3=C(C(=O)O)COC3)c(F)c2F)c1 [compound 29]
max. activation (Nurr1) [1]: 2.5±0.1 fold
efficacy_NR4A2 [1]: 250%

[2H]C([2H])([2H])Oc1cccc(-c2c(F)c(F)c(NC(=O)c3ccsc3S(N)(=O)=O)c(F)c2F)c1 [compound 13, Sulfamoyl-N-{2,3,5,6-tetrafluoro-3'-(^2H3)methoxy-[1,1'-biphenyl]-4-yl}thiophene-3-carboxamide]
EC50 [1]: 1100 ± 100 nM
max. activation (Nurr1) [1]: 2.09 ± 0.08 fold
selectivity index DHODH/Nurr1 [1]: 3.0
efficacy_NR4A2 [1]: 209%
IC50 [2, 5]: 3330 ± 60 nM
IC50 ([2]; supplementary csv, read-out: IC50_DHODH): 3300 nM

[2H]C([2H])([2H])Oc1cccc(-c2c(F)c(F)c(NC(=O)c3cscc3-c3nc(=S)on3C)c(F)c2F)c1 [compound 25, 4-(2-Methyl-5-thioxo-2,5-dihydro-1,2,4-oxadiazol-3-yl)-N-{2,3,5,6-tetrafluoro-3’-(^2H3)methoxy-[1,1'-biphenyl]-4-yl}thiophene-3-carboxamide]
EC50 [1]: 900 ± 100 nM
max. activation (Nurr1) [1]: 2.3±0.2 fold
selectivity index DHODH/Nurr1 [1]: >100
efficacy_NR4A2 [1]: 230%
inhibition at 100 µM ([2]; recombinant human DHODH): 40 ± 8%

[2H]C([2H])([2H])Oc1cccc(-c2c(F)c(F)c(NC(=O)c3cscc3C3=NOS(=O)N3)c(F)c2F)c1 (stereo not drawn) [compound 28, 4-(2-Oxido-3H-1,2,3,5-oxathiadiazol-4-yl)-N-{2,3,5,6-tetrafluoro-3’-(^2H3)methoxy-[1,1'-biphenyl]-4-yl}thiophene-3-carboxamide]
EC50 [1]: 39 ± 5 nM
max. activation (Nurr1) [1]: 2.4±0.1 fold
selectivity index DHODH/Nurr1 [1]: 30
efficacy_NR4A2 [1]: 240%
IC50 [2, 5]: 1200 ± 200 nM

[2H]C([2H])([2H])Oc1cccc(-c2c(F)c(F)c(NC(=O)c3ccsc3S(C)(=N)=O)c(F)c2F)c1 (stereo not drawn) [compound 16, 2-(S-Methylsulfonimidoyl)-N-{2,3,5,6-tetrafluoro-3’-(^2H3)methoxy-[1,1'-biphenyl]-4-yl}thiophene-3-carboxamide]
EC50 [1]: 1200 ± 200 nM
max. activation (Nurr1) [1]: 2.17 ± 0.11 fold
selectivity index DHODH/Nurr1 [1]: ~25
efficacy_NR4A2 [1]: 217%
inhibition at 100 µM ([2]; recombinant human DHODH): 76 ± 6%

[2H]C([2H])([2H])Oc1cccc(-c2c(F)c(F)c(NC(=O)c3ccccc3-c3nn[nH]n3)c(F)c2F)c1 [compound 31, N-{2,3,5,6-Tetrafluoro-3’-(^2H3)methoxy-[1,1'-biphenyl]-4-yl}-2-(2H-tetrazol-5-yl)benzamide]
EC50 [1]: 140 ± 10 nM
max. activation (Nurr1) [1]: 1.9±0.1 fold
selectivity index DHODH/Nurr1 [1]: 1.9
efficacy_NR4A2 [1]: 190%
IC50 [2, 5]: 260 ± 40 nM

[2H]C([2H])([2H])Oc1cccc(-c2c(F)c(F)c(NC(=O)C3=C(C(=O)O)CCC3)c(F)c2F)c1 [compound 10]
max. activation (Nurr1) [3, 6]: 1.9±0.1 fold
efficacy_NR4A2 [3]: 188%

[2H]C([2H])([2H])Oc1cccc(-c2c(F)c(F)c(NC(=O)C3=C(c4nn[nH]n4)COC3)c(F)c2F)c1 [compound 30, N-{2,3,5,6-Tetrafluoro-3’-(^2H3)methoxy-[1,1'-biphenyl]-4-yl}-4-(2H-tetrazol-5-yl)-2,5-dihydrofuran-3-carboxamide]
Nurr1 preference/selectivity over DHODH [1]: 14 fold
EC50 [1]: 220 nM
max. activation (Nurr1) [1]: 2.0±0.2 fold
selectivity index DHODH/Nurr1 [1]: 13.6
efficacy_NR4A2 [1]: 200%
IC50 [2, 5]: 3000 ± 1000 nM

[2H]C([2H])([2H])Oc1cccc(-c2c(F)c(F)c(NC(=O)c3cscc3-c3noc(=O)[nH]3)c(F)c2F)c1 [compound 21, 4-(5-Oxo-4,5-dihydro-1,2,4-oxadiazol-3-yl)-N-{2,3,5,6-tetrafluoro-3’-(^2H3)methoxy-[1,1'-biphenyl]-4-yl}thiophene-3-carboxamide]
EC50 [1]: 30 ± 10 nM
max. activation (Nurr1) [1]: 2.2±0.1 fold
selectivity index DHODH/Nurr1 [1]: 13
efficacy_NR4A2 [1]: 220%
IC50 [2, 5]: 400 ± 60 nM

[2H]C([2H])([2H])Oc1cccc(-c2c(F)c(F)c(NC(=O)c3ccsc3S(=O)(=O)NC(C)=O)c(F)c2F)c1 [compound 14, 2-(N-Acetylsulfamoyl)-N-{2,3,5,6-tetrafluoro-3’-(^2H3)methoxy-[1,1'-biphenyl]-4-yl}thiophene-3-carboxamide]
EC50 [1]: 900 ± 100 nM
max. activation (Nurr1) [1]: 1.89 ± 0.06 fold
selectivity index DHODH/Nurr1 [1]: 4.4
efficacy_NR4A2 [1]: 189%
IC50 [2, 5]: 4000 ± 1000 nM

[2H]C([2H])([2H])Oc1cccc(-c2c(F)c(F)c(NC(=O)c3ccsc3S(C)(=O)=O)c(F)c2F)c1 [compound 15, 2-(Methylsulfonyl)-N-{2,3,5,6-tetrafluoro-3’-(^2H3)methoxy-[1,1'-biphenyl]-4-yl}thiophene-3-carboxamide]
EC50 [1]: 1200 ± 100 nM
max. activation (Nurr1) [1]: 2.05 ± 0.08 fold
selectivity index DHODH/Nurr1 [1]: ~100
efficacy_NR4A2 [1]: 205%
inhibition at 100 µM ([2]; recombinant human DHODH): 49 ± 1%

[2H]C([2H])([2H])Oc1cccc(-c2c(F)c(F)c(NC(=O)c3ccsc3-c3noc(=O)[nH]3)c(F)c2F)c1 [compound 18, 2-(5-Oxo-4,5-dihydro-1,2,4-oxadiazol-3-yl)-N-{2,3,5,6-tetrafluoro-3’-(^2H3)methoxy-[1,1'-biphenyl]-4-yl}thiophene-3-carboxamide]
EC50 [1]: 50 ± 10 nM
max. activation (Nurr1) [1]: 1.86 ± 0.11 fold
selectivity index DHODH/Nurr1 [1]: 13
efficacy_NR4A2 [1]: 186%
IC50 [2, 5]: 660 ± 80 nM

[2H]C([2H])([2H])Oc1cccc(-c2c(F)c(F)c(NC(=O)c3cscc3-c3nn[nH]n3)c(F)c2F)c1 [compound 22, N-{2,3,5,6-Tetrafluoro-3’-(^2H3)methoxy-[1,1'-biphenyl]-4-yl}-4-(2H-tetrazol-5-yl)thiophene-3-carboxamide]
EC50 [1]: 11 ± 2 nM
max. activation (Nurr1) [1]: 2.5±0.2 fold
selectivity index DHODH/Nurr1 [1]: 3.9
efficacy_NR4A2 [1]: 250%
IC50 [2, 5]: 43 ± 6 nM

[2H]C([2H])([2H])Oc1cccc(-c2c(F)c(F)c(NC(=O)c3ccsc3-c3nn[nH]n3)c(F)c2F)c1 [compound 19, N-{2,3,5,6-Tetrafluoro-3’-(^2H3)methoxy-[1,1'-biphenyl]-4-yl}-2-(2H-tetrazol-5-yl)thiophene-3-carboxamide]
EC50 [1]: 21 ± 2 nM
max. activation (Nurr1) [1]: 2.14 ± 0.11 fold
selectivity index DHODH/Nurr1 [1]: 28
efficacy_NR4A2 [1]: 214%
IC50 [2, 5]: 600 ± 200 nM

[2H]C([2H])([2H])Oc1cccc(-c2cc(F)c(NC(=O)C3=C(c4noc(=O)[nH]4)CCC3)c(F)c2)c1 [compound 8]
selectivity index DHODH/Nurr1 [1]: 9
EC50 [3, 6]: 1000 ± 100 nM
max. activation (Nurr1) [3, 6]: 2.0±0.1 fold
efficacy_NR4A2 [3]: 200%
IC50 [4]: 9260 nM and 9000 nM

[2H]C([2H])([2H])Oc1cccc(-c2c(F)c(F)c(NC(=O)c3cscc3-c3nc(=O)on3C)c(F)c2F)c1 [compound 24, 4-(2-Methyl-5-oxo-2,5-dihydro-1,2,4-oxadiazol-3-yl)-N-{2,3,5,6-tetrafluoro-3’-(^2H3)methoxy-[1,1'-biphenyl]-4-yl}thiophene-3-carboxamide]
EC50 [1]: 2600 ± 300 nM
max. activation (Nurr1) [1]: 1.9±0.2 fold
selectivity index DHODH/Nurr1 [1]: 4.2
efficacy_NR4A2 [1]: 190%
IC50 [2, 5]: 11100 ± 600 nM

[2H]C([2H])([2H])Oc1cccc(-c2c(F)c(F)c(NC(=O)c3cscc3-c3n[nH]c(=O)o3)c(F)c2F)c1 [compound 26, 4-(5-Oxo-4,5-dihydro-1,3,4-oxadiazol-2-yl)-N-{2,3,5,6-tetrafluoro-3’-(^2H3)methoxy-[1,1'-biphenyl]-4-yl}thiophene-3-carboxamide]
EC50 [1]: 17 ± 2 nM
max. activation (Nurr1) [1]: 1.8±0.1 fold
selectivity index DHODH/Nurr1 [1]: 5.9
efficacy_NR4A2 [1]: 180%
IC50 [2, 5]: 100 ± 10 nM

[2H]C([2H])([2H])Oc1cccc(-c2c(F)c(F)c(NC(=O)c3cscc3-c3noc(=S)[nH]3)c(F)c2F)c1 [compound 23, N-{2,3,5,6-Tetrafluoro-3’-(^2H3)methoxy-[1,1'-biphenyl]-4-yl}-4-(5-thioxo-4,5-dihydro-1,2,4-oxadiazol-3-yl)thiophene-carboxamide]
EC50 [1]: 36 ± 3 nM
max. activation (Nurr1) [1]: 1.77±0.04 fold
selectivity index DHODH/Nurr1 [1]: 1.7
efficacy_NR4A2 [1]: 177%
IC50 [2, 5]: 62 ± 4 nM
